Results from patent US20040185016A1, “Compositions for treatment of hyperpigmentation and methods for making and using such compositions” (priority 2002, published 2004).
Read-outs that look alike come from different tables or passages of the source.

Assays:
[1] = in composition of Example 1; 30 and 90 days
Method: The composition of Example 1 was subjected to a range of temperatures over a period of time from 30 to 90 days to determine the chemical stability of selected ingredients. […] “FT” refers to freeze thaw conditions (−10° to −20° C.) where the product is exposed to freezing conditions for two days and then allowed to that at controlled room temperature (15° to 30° C.) for the next five days.

[2] = chemical stability of selected ingredients in the composition of Example 3 (HPLC assay); settings: in composition of Example 3
[3] = 0 days

For `COc1ccc(C(=O)CC(=O)c2ccc(C(C)(C)C)cc2)cc1` [avobenzone], the “ingredient activity after exposure of the formulation to high and low temperatures” value (“ingredient activity after exposure” for short) [1] was “remained active”, the “ingredient activity after exposure” value ([2]; 30 to 90 days) was “remained active” and the “ingredient content, chemical stability by HPLC” value (“ingredient content” below) [3] was 3.03 % W/W.

With `COc1ccc(C(=O)c2ccccc2)c(O)c1` [oxybenzone] the “ingredient activity after exposure” value ([2]; 30 to 60 days) was “remained active”, the “ingredient activity after exposure” value ([2]; 30 to 90 days) was “remained active” and the “ingredient content” value ([2]; 30 days, 25°) was 5.98 % W/W. The “ingredient content” value ([2]; 30 days, 30°) was 5.95 % W/W, the “ingredient content” value ([2]; 30 days, 40°) was 6.04 % W/W and the “ingredient content” value ([2]; 60 days, 25°) was 6.04 % W/W. The “ingredient content” value ([2]; 60 days, 30°) was 6.02 % W/W, the “ingredient content” value ([2]; 60 days, 40°) was 6.07 % W/W and the “ingredient content” value ([2]; 90 days, 6°) was 6.05 % W/W. For the same compound, the “ingredient content” value ([2]; 90 days, 25°) was 6.09 % W/W, the “ingredient content” value ([2]; 90 days, 30°) was 6.07 % W/W and the “ingredient content” value ([2]; 90 days, 40°) was 6.06 % W/W. The “ingredient content” value ([2]; 90 days, FT (freeze thaw)) was 6.09 % W/W and the “ingredient content” value ([2]; day 0, 25°) was 6.07 % W/W.

With `CCCCC(CC)COC(=O)C=Cc1ccc(OC)cc1` (stereo not drawn) [octyl methoxycinnamate] the “ingredient content” value [3] was 7.61 % W/W.

With `Oc1ccc(O)cc1` [hydroquinone] the “ingredient activity after exposure” value [1] was “remains active”, the “ingredient activity after exposure” value ([2]; 30 to 90 days) was “remained active” and the “ingredient content” value [3] was 3.95 % W/W.
